Results on six molecules are retold here after ChEMBL document CHEMBL1201862, “PubChem BioAssay data set” (2004).

What all share (type): functional
Assay [1] deals with ALK tyrosine kinase receptor (Homo sapiens, UniProt Q9UM73).
Assay [2] deals with Death-associated protein kinase 3 (Homo sapiens, UniProt O43293).
Assay [3] addresses Activin receptor type-1 (Homo sapiens, UniProt Q04771). The experiment in a line: Navigating the Kinome. Panel member name: ACVR1.
Assay [4] deals with Mitogen-activated protein kinase 8 (Homo sapiens, UniProt P45983).
In assay [5] the target is Serine/threonine-protein kinase pim-1 (Homo sapiens, UniProt P11309).
Assay [6] addresses Serine/threonine-protein kinase PAK 4 (Homo sapiens, UniProt O96013).
The target in assay [7] is Tyrosine-protein kinase JAK3 (Homo sapiens, UniProt P52333).
Assay [8] deals with Serine/threonine-protein kinase TAO1 (Homo sapiens, UniProt Q7L7X3).
For assay [9], the target named is Glycogen synthase kinase-3 alpha (Homo sapiens, UniProt P49840).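 Note: GSK3A result taken from a broad kinome-wide kinase panel.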
For assay [10], the target named is G protein-coupled receptor kinase 5 (Homo sapiens, UniProt P34947). Nature of the assay: Navigating the Kinome. Panel member name: GPRK5.
Assay [11] deals with Tyrosine-protein kinase Fyn (Homo sapiens, UniProt P06241).
Assay [12] has as its target Cyclin-dependent kinase 7 (Homo sapiens, UniProt P50613).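 Note: value comes from a kinome-wide kinase profiling panel in which CDK7 is one member.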
Assay [13] addresses Mitogen-activated protein kinase kinase kinase kinase 4 (Homo sapiens, UniProt O95819).
Assay [14] concerns the target Macrophage-stimulating protein receptor (Homo sapiens, UniProt Q04912). The experiment in a line: Navigating the Kinome. Panel member name: MST1R.
The target in assay [15] is Calcium/calmodulin-dependent protein kinase type II subunit alpha (Homo sapiens, UniProt Q9UQM7). The experiment in a line: Navigating the Kinome. Panel member name: CAMK2A.
Assay [16] addresses Cell division cycle 7-related protein kinase (Homo sapiens, UniProt O00311).
Assay [17] concerns the target Homeodomain-interacting protein kinase 2 (Homo sapiens, UniProt Q9H2X6).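 Note: measured within a kinome-wide kinase profiling panel, HIPK2 being one panel member.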
Assay [18] concerns the target T1, Interleukin-1 receptor-associated kinase 4 (Homo sapiens, UniProt Q9NWZ3).
T1 sequence (Q9NWZ3 whole entry): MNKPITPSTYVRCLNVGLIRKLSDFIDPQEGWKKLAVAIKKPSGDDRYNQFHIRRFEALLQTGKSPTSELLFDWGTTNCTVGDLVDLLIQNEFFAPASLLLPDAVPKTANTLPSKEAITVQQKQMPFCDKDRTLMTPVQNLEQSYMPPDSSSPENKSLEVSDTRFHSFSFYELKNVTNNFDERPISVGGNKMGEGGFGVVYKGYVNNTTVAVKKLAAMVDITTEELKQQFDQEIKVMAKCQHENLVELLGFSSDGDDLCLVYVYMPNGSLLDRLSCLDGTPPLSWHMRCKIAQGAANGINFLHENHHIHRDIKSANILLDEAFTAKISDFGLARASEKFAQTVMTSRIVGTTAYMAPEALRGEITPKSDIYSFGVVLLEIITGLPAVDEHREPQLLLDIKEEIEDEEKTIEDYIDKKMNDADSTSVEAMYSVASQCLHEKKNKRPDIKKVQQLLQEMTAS

For assay [19], the target named is Glycogen synthase kinase-3 beta (Homo sapiens, UniProt P49841).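 Note: value comes from a broad kinome profiling panel, with GSK3B as the panel member.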
Assay [20] deals with Cyclin-dependent kinase 9 (Homo sapiens, UniProt P50750).
Assay [21] addresses cAMP-dependent protein kinase catalytic subunit alpha (Homo sapiens, UniProt P17612).
Assay [22] deals with Aurora kinase A (Homo sapiens, UniProt O14965).
For assay [23], the target named is MAP kinase-interacting serine/threonine-protein kinase 2 (Homo sapiens, UniProt Q9HBH9).
The target in assay [24] is Aurora kinase B (Homo sapiens, UniProt Q96GD4).
Assay [25] has as its target Dual specificity protein kinase CLK4 (Homo sapiens, UniProt Q9HAZ1).
Assay [26] has as its target Tyrosine-protein kinase receptor TYRO3 (Homo sapiens, UniProt Q06418).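 Note: TYRO3 value obtained as one member of a kinome-wide profiling panel.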
Assay [27] deals with Cyclin-dependent kinase 5 (Homo sapiens, UniProt Q00535).
The target of assay [28] is Platelet-derived growth factor receptor alpha (Homo sapiens, UniProt P16234). Nature of the assay: Navigating the Kinome. Panel member name: PDGFRA.
Assay [29] addresses Cyclin-dependent kinase 19 (Homo sapiens, UniProt Q9BWU1). Nature of the assay: Navigating the Kinome. Panel member name: CDC2L6.
In assay [30] the target is High affinity nerve growth factor receptor (Homo sapiens, UniProt P04629).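 Note: NTRK1 tested as one member of a kinome-wide profiling panel.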
For assay [31], the target named is Inhibitor of nuclear factor kappa-B kinase subunit epsilon (Homo sapiens, UniProt Q14164). The experiment in a line: Navigating the Kinome. Panel member name: IKBKE.

Activity calls are given as the source filed them.

Serine/threonine-protein kinase pim-1, sequence (P11309 whole entry): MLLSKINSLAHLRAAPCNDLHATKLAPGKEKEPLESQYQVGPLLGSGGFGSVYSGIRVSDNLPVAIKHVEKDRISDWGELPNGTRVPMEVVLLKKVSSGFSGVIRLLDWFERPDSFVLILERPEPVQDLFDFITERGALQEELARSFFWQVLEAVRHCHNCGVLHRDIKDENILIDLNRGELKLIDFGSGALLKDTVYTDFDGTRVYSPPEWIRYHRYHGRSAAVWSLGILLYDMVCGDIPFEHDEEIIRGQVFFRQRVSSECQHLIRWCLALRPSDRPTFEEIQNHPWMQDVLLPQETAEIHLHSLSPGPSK
Homeodomain-interacting protein kinase 2, sequence (Q9H2X6 whole entry): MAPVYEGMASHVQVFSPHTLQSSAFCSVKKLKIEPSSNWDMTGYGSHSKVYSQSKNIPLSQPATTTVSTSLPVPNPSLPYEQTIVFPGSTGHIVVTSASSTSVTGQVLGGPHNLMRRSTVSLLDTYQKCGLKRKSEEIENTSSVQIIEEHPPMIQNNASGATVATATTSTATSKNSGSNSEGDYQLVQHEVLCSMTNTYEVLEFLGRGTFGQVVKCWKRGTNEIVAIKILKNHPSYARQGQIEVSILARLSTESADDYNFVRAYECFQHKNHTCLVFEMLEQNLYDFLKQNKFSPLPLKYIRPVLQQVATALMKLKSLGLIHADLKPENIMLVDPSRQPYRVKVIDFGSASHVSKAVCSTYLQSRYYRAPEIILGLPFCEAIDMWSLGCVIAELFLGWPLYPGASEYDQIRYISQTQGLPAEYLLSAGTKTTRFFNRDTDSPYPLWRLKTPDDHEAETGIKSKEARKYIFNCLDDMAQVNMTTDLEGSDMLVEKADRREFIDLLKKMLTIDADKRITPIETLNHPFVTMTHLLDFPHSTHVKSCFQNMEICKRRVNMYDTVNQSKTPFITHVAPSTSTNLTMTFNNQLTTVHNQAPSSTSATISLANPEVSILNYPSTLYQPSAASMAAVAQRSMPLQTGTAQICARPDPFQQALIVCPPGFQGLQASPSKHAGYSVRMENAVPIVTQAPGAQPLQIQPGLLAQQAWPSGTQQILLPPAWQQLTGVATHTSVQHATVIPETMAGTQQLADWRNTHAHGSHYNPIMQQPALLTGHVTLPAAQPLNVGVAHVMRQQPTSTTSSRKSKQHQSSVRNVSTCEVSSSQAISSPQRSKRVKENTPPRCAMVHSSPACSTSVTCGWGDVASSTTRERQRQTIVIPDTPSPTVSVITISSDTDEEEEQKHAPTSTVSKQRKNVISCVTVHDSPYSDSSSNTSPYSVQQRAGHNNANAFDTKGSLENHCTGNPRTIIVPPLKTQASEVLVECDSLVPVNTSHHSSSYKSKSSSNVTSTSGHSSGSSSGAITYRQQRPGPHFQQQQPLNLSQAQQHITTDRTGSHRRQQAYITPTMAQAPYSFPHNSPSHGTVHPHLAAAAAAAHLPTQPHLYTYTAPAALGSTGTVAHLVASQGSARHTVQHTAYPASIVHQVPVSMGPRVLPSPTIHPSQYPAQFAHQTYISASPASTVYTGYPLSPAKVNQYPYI
Cyclin-dependent kinase 7, sequence (P50613 whole entry): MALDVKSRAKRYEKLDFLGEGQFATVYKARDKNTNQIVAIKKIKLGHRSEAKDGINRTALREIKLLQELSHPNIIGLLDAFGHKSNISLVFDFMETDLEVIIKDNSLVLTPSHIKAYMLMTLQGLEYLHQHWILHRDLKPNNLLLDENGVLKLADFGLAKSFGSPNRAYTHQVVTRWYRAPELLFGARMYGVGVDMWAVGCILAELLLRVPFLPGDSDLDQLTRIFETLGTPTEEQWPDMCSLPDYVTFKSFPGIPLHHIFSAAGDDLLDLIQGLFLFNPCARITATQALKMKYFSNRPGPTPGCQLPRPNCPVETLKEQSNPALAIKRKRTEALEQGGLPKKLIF
Mitogen-activated protein kinase kinase kinase kinase 4, sequence (O95819 whole entry): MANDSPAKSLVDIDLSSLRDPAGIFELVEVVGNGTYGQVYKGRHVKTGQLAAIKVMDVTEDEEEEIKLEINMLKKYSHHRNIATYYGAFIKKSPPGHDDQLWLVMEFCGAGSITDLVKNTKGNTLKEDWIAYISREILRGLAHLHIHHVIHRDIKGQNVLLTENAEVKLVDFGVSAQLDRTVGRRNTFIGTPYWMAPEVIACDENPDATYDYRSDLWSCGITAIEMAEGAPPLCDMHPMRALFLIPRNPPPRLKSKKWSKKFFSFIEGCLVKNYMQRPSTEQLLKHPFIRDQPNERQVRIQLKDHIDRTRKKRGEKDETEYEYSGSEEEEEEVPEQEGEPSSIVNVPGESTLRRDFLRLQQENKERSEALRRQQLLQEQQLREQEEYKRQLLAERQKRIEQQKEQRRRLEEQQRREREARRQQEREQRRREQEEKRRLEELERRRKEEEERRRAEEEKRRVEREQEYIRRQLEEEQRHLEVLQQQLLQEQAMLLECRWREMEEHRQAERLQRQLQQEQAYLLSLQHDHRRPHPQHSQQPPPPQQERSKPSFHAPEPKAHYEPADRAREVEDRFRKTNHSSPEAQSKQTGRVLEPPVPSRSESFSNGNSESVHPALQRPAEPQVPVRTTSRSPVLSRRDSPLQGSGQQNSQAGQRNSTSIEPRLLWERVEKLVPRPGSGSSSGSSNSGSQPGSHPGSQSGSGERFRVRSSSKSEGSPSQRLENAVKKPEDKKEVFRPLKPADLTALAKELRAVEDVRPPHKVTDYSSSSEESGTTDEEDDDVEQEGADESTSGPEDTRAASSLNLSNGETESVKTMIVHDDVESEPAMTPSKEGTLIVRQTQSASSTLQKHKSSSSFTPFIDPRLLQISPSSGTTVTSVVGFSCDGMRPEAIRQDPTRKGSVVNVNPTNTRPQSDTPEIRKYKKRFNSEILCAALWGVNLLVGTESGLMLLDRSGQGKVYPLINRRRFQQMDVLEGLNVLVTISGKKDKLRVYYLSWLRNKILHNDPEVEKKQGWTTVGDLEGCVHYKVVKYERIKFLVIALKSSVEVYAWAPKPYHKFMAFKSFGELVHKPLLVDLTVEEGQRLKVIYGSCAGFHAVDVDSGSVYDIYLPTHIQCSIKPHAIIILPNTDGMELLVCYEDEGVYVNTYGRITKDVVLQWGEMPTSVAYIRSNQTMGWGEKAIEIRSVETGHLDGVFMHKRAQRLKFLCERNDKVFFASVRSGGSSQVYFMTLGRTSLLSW
Glycogen synthase kinase-3 beta, sequence (P49841 whole entry): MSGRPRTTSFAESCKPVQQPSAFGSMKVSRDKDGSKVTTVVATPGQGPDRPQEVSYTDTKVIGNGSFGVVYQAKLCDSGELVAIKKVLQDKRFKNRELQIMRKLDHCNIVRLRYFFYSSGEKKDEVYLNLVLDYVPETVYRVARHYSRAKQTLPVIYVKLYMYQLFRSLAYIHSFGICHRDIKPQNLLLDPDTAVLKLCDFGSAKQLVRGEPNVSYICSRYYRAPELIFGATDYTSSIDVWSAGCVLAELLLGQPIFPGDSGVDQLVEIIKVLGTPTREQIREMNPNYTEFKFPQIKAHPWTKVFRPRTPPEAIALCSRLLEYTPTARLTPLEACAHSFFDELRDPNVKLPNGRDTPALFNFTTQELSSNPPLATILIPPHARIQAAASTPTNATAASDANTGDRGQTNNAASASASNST
Dual specificity protein kinase CLK4, sequence (Q9HAZ1 whole entry): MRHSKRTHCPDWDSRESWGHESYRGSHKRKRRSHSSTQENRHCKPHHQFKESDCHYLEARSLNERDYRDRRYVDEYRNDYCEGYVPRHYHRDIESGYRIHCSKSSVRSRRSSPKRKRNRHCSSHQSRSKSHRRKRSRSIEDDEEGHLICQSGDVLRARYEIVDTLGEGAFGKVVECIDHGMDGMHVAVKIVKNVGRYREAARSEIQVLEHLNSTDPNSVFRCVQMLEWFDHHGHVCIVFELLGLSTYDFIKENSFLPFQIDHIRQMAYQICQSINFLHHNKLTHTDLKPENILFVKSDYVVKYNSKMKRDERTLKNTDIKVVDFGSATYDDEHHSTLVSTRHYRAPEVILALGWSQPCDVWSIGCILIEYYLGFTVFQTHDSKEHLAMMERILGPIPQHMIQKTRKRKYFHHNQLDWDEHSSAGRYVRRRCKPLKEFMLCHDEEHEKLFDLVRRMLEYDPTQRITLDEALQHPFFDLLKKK
Cyclin-dependent kinase 19, sequence (Q9BWU1 whole entry): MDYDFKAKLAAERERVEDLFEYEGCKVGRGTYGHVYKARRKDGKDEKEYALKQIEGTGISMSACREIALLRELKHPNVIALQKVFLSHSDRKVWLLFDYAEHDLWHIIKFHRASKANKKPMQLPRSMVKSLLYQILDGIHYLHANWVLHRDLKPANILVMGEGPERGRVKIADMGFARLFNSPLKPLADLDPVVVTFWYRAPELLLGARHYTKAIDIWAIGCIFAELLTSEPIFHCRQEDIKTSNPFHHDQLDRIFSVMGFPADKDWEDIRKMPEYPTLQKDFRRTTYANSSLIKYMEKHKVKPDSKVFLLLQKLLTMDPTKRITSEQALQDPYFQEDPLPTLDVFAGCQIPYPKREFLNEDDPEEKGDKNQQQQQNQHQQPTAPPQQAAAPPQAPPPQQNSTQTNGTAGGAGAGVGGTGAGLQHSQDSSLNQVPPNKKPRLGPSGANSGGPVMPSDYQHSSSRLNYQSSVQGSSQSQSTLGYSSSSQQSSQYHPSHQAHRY
Cyclin-dependent kinase 9, sequence (P50750 whole entry): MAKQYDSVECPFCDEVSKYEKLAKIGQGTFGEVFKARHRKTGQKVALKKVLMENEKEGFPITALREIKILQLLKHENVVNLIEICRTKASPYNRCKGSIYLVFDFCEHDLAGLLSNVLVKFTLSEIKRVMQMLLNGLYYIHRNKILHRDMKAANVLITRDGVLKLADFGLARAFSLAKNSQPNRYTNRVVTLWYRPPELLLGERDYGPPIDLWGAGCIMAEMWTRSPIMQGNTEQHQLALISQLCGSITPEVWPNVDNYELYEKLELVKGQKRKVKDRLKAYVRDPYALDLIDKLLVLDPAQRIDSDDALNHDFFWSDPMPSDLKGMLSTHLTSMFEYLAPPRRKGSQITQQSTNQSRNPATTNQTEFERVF

In the case of `CN(C)c1ccc(NC(=O)CC2Nc3ccccc3NC2=O)cc1` (stereo unspecified), the Ki in assay [1] is > 6.31 µM (inactive); in assay [2], > 5.01 µM (inactive); in [3], > 3.98 µM (inactive); in assay [4], > 5.01 µM (inactive); in assay [5], > 6.31 µM (inactive); in assay [6] it was > 5.01 µM (inactive). Moreover, the Ki is > 5.01 µM (inactive) in assay [7]; > 6.31 µM (inactive) in assay [8]; > 3.98 µM (inactive) in assay [9]; > 3.98 µM (inactive) in [10]; > 6.31 µM (inactive) in [11]; > 3.98 µM (inactive) in assay [12]. Besides, the Ki in assay [13] is > 5.01 µM (inactive); in [14], 0.398 µM (active); in assay [15], > 3.98 µM (inactive).
Take `COCCNc1cc(-c2c[nH]c3ncccc23)cc(Cl)n1`: the Ki is 0.794 µM (active) in assay [5]; 0.002 µM (active) in assay [16]; 0.0631 µM (active) in [17]; 3.98 µM (active) in assay [18]; 0.158 µM (active) in assay [12]; 0.126 µM (active) in [19]. The figures for the Ki in assay [20] and in assay [21] were 0.2 µM (active) and 0.158 µM (active), respectively.
For the molecule `Cc1ccc(Nc2nccc(Nc3ccccc3C(=O)O)n2)cc1F`, the Ki is 0.158 µM (active) in assay [5]; 0.0158 µM (active) in assay [22]; 0.00631 µM (active) in assay [17]; 0.251 µM (active) in assay [23]; 0.00501 µM (active) in assay [24]; 3.98 µM (active) in [18]. Besides, the inhibitory constant (Ki) in assay [19] was 0.00316 µM (active); in assay [21] it was > 7.94 µM (inactive); in assay [25], 0.0794 µM (active); in assay [13], 0.2 µM (active).
`CC(=O)n1nc(N)c2ccc(Br)cc21`: the Ki in [26] is 2.51 µM (active); in assay [27] it was 1.58 µM (active); in assay [28] it was 2.51 µM (active).
As for `O=C1CC(c2ccccc2)Cc2[nH]c3cc(Cl)ccc3c(=O)c21` (stereo unspecified), the figures for the Ki in assay [5], in assay [29] and in [25] were 2.51 µM (active), > 100 µM (inactive) and 3.98 µM (active), respectively.
For `Nc1ncnc2c1N=C(c1ccc(NC(=O)Nc3ccc(F)c(C(F)(F)F)c3)cc1)CCN2`, the inhibition constant (Ki) in assay [30] was 0.126 µM (active); in [31], 3.16 µM (active).
